# Laboratory results as given in patent publication US7156881B2, “Counteracting bioprosthetic calcification” (The Children's Hospital of Philadelphia, priority 2002, dated 2007).
# Marks after values point to notes of the source that are not given here.
# How the values were obtained:
# [1] = Kinetics of epoxy-ring opening with different nucleophiles (t-butyl glycidyl ether in water); assay type: physicochemical; conditions: for Reacted substrate / k · 10^3: 20° C., pH ca. 7; for reactivity relative to nucleophiles without a sulfur atom: 20° C. and pH of about 7
# Text: Pursuant to the present invention, the functional groups need to cleave an epoxy ring, and nucleophilic groups are illustrative in this respect.
# [2] = tested on: porcine aortic valve cusps; assay: 21-day rat subdermal implants, Ca content by atomic absorption: cusp; assay type: in vivo, Sprague-Dawley rats; conditions: Cusp implanted
# Procedure: (§1) A series of bioprosthetic material samples were prepared, in order to compare the anti-calcification efficacy of TGA-MABP with TGA crosslinking alone. The material used were porcine aortic valve cusps, porcine aortic wall, and bovine pericardium. These materials were obtained fresh at slaughter and transported to the laboratory on ice.
# [3] = Rat weight in 21-day subdermal implant study; conditions: 21-day rat subdermal implants
# Procedure: All materials were rinsed thoroughly with normal saline, and 1 cm^2 pieces of aortic wall, pericardium, or individual cusp leaflets crosslinked with 100 mM TGA with the inclusion of 20 mM MABP, as described above with daily replacement of solutions for 7 days. After thorough rinse with normal saline, biomaterials were surgically implanted in dorsal subdermal pouches of 75–80 g male Sprague-Dawley rats as previously described. Animals were sacrificed after 21 days, implants recovered, rinsed, dried, and analyzed for Ca content by atomic absorption spectroscopy (AA).
# [4] = Kinetics of epoxy-ring opening with different nucleophiles (triglicidyl amine in water); assay type: physicochemical; conditions: 20° C.; for K * 10^3 / Reacted substrate: pH ca. 7; for rate of reaction with TGA-epoxy (k): pH 7.4, 20 mM of MABP
# Text: The bioprosthetic materials treated by both MABP and TGA show a significant improvement in anti-calcification ability. Consequently, it is believed that the MABP has successfully met the above-mentioned criteria, i.e., the reactive functional group is active enough to dominate the co-attachment reaction between MABP and TGA, and to cause MABP to attach to a TGA epoxide more completely.
# [5] = TGA cross-linking of bovine pericardium, shrink temperature (Ts) by DSC; assay type: physicochemical; conditions: for shrink temperature (Ts): 100 mM TGA, borate mannitol buffer pH 7.4, room temperature
# Procedure: Bovine pericardium was obtained fresh at slaughter and transported to the lab on ice. After extensive rinsing with normal saline, the tissue was cut into 1 cm squares and segregated into 5 groups for crosslinking as described below. Reactions were carried out at room temperature on a rocker platform for 7 days with daily replacement of each solution with one freshly prepared in borate mannitol buffer (9.33 g/l sodium tetraborate, −˜2 g mannitol to pH 7.4). Pericardial samples were removed from the reaction vessels daily, rinsed and stored individually at 4° C. in normal saline for shrink temperature determination (Ts) by Differential Scanning […] (DSC) analysis at the end of the experiment.
# MABP stock solution was prepared daily by adding water, neutralizing with NaHCO3, and diluting to one of the three desired concentrations (2 mM, 20 mM, 100 mM) in boratemannitol buffer. TGA then was added to each solution to a final concentration of 100 mM TGA. Two additional groups were treated solely with 100 mM TGA in the same buffer for 7 days, and one of these treated again on day 8 with 100 mM MABP in buffer.
# Further experiments were done testing the anti-calcification potential of MABP co-attachment utilized the maximum non-interfering condition tested: 20 mM MABP and 100 mM TGA in borate-mannitol buffer, pH 7.4. Those experimental data are shown in Table III and graphically in FIG. 1.
# [6] = tested on: porcine aortic wall; assay: 21-day rat subdermal implants, Ca content by atomic absorption: aortic wall; assay type: in vivo, Sprague-Dawley rats; conditions: Aortic wall implanted
# Procedure: as §1
# [7] = tested on: bovine pericardium; assay: 21-day rat subdermal implants, Ca content by atomic absorption: pericardium; assay type: in vivo, Sprague-Dawley rats; conditions: Pericardium implanted
# Procedure: as §1
# [8] = tested on: aortic wall segment of a bioprosthetic implant; conditions: TGA-crosslinking methodology, related art; cited from earlier work
# [9] = tested on: bovine pericardial calcification; conditions: TGA-crosslinking methodology, related art; cited from earlier work
# [10] = substrate 0.1 M, epoxide 0.3 M, time of reaction 120 h
# [11] = substrate 0.4 M, epoxide 0.3 M, time of reaction 120 h
# [12] = substrate 0.1 M, epoxide 0.3 M, time of reaction 48 h
# [13] = substrate 0.2 M, epoxide 0.1 M, time of reaction 1 h
# [14] = substrate 0.2 M, epoxide 0.06 M, time of reaction 1.75 h
# [15] = substrate 0.1 M, epoxide 0.3 M, time of reaction 5 min
# [16] = substrate 0.1 M, epoxide 0.3 M, time of reaction 15 min
# [17] = substrate 0.2 M, epoxide 0.1 M, time of reaction 2 h
# [18] = substrate 0.1 M, epoxide 0.3 M, time of reaction 3 h
# [19] = substrate 0.1 M, epoxide 0.3 M, time of reaction 19 h
molecule,measurement,setting,value
CC(=O)N[C@@H](Cc1c[nH]cn1)C(=O)O [N-Acetyl-L-histidine],Reacted substrate,[1]; [10],60%
same,k · 10^3,[1]; [10],29 l/mol · h
Phosphate,Reacted substrate,[1]; [11],12%
same,k · 10^3,[1]; [11],3.9 l/mol · h
O=CCCCC=O [Glutaraldehyde],Ca,[2]; 21-day rat subdermal implants,89.03 +/− 5.59* μg/mg dry wt.
same,Rat weight,[3]; Cusp implanted,268.8 ± 6.5 g
c1c[nH]cn1 [Imidazole],Reacted substrate,[1]; [12],28%
same,k · 10^3,[1]; [12],24 l/mol · h
N[C@@H](CS)C(=O)O [Cysteine],reactivity relative to nucleophiles without a sulfur atom,[1],at least twenty times more reactive
same,Reacted substrate,[1]; [13],13%
same,k · 10^3,[1]; [13],1618 l/mol · h
same,K * 10^3,[4]; [13],1618 1/mol * h
same,Reacted substrate,[4]; [13],13%
"O=P(O)(O)C(CNCCS)P(=O)(O)O [MABP, 2-(2-mercaptoethylamino)-ethylidene-1,1-bisphosphonate]",rate of reaction with TGA-epoxy (k),[4],1.2 mol⁻¹ h⁻¹
same,K * 10^3,[4]; [14],1120 1/mol * h
same,Reacted substrate,[4]; [14],10%
same,interference of MABP with the TGA crosslinking process (DSC),[5]; equimolar concentration of MABP and TGA (100 mM each) versus the other conditions,grossly slowed the crosslinking process
same,effects on rat weight gain,[3]; inclusion of MABP,no significant effects
O=S(O)(O)=S [Thiosulfate],reactivity relative to nucleophiles without a sulfur atom,[1],at least twenty times more reactive
same,Reacted substrate,[1]; [15],30%
same,k · 10^3,[1]; [15],23 000 l/mol · h
same,Reacted substrate,[1]; [16],52%
same,k · 10^3,[1]; [16],17 000 l/mol · h
same,K * 10^3,[4]; [15],23000 1/mol * h
same,Reacted substrate,[4]; [15],30%
same,K * 10^3,[4]; [16],17000 1/mol * h
same,Reacted substrate,[4]; [16],52%
"O=P(O)(O)C(CS)P(=O)(O)O [MEBP, 2-mercaptoethlidene-1,1-bisphosphonate]",rate of reaction with TGA-epoxy (k),[4],0.035 mol⁻¹ h⁻¹
same,K * 10^3,[4]; [17],35 1/mol * h
same,Reacted substrate,[4]; [17],0.7%
CSCCC(NC(C)=O)C(=O)O (racemic) [N-Acetyl-DL-methionine],reactivity relative to nucleophiles without a sulfur atom,[1],at least twenty times more reactive
same,Reacted substrate,[1]; [18],33%
same,k · 10^3,[1]; [18],473 l/mol · h
same,Reacted substrate,[1]; [19],89%
same,k · 10^3,[1]; [19],488 l/mol · h
"C1OC1CN(CC1CO1)CC1CO1 (centres unmarked) [TGA, triglycidyl amine]",shrink temperature (Ts),[5]; Day 1 of crosslinking,72.6 +/− 1.0
same,shrink temperature (Ts),[5]; Day 2 of crosslinking,77.4 +/− 0.5
same,shrink temperature (Ts),[5]; Day 3 of crosslinking,78.2 +/− 0.3
same,shrink temperature (Ts),[5]; Day 4 of crosslinking,79.6 +/− 0.4
same,shrink temperature (Ts),[5]; Day 6 of crosslinking,80.2 +/− 0.3
same,shrink temperature (Ts),[5]; Day 7 of crosslinking,81.0 +/− 0.6
same,Ca,[6],7.73 +/− 0.90 μg/mg dry wt.
same,Ca,[7],11.23 +/− 4.74 μg/mg dry wt.
same,Ca,"[2]; rat subdermal implants, prev. exp.",2.07 +/− 0.31 μg/mg dry wt.
same,inhibition of calcification of the aortic wall segment,[8],relatively ineffective
same,inhibiting bovine pericardial calcification,[9],less effective
same,Rat weight,[3]; Aortic wall implanted,247.8 ± 7.9 g
same,Rat weight,[3]; Pericardium implanted,268.2 ± 9.9 g
CC(O)(P(=O)(O)O)P(=O)(O)O [HEDP],Reacted substrate,[1]; [11],5.5%
same,k · 10^3,[1]; [11],1.6 l/mol · h
